“Also recorded” adds a separate entry of the source.
Columns and labels:
[1] = test system: HSP105, HSP70, pHER2, total HER2 and EGR4-S expression; assay: Western blot after treatment with cell stress activating compounds (FIG. 4E); type: cell-based
Procedure: The MCF10A cell line was obtained from the A.T.C.C. (Manassas, VA, U.S.A.) and cultured as described previously (Debnath et al., 2003). T47D cells, SkBr3 cells, Hs578T and HEK-293T cells were cultured as described by Nguyen et al (2013). MDA-361, ZR75-1, BT-474, MDA-453, MDA-468, MDA-231, BT549 and MCF7 cells were cultured in Dulbecco's Modified Eagle's medium supplemented with 10% (v/v) fetal bovine serum and 1% (w/v) penicillin/streptomycin. In addition, MCF7 growth media was supplemented with 10 ng/ml insulin. All stable cell lines were generated by retroviral or lentiviral transduction as per Debnath et al. (2003). Viral stocks were generated by transient transfection of appropriate viral packaging vectors into the HEK-293T cell line as described by Lang and colleagues (2012). Drugs/compounds used for treating the cells were purchased from commercial sources, including Lapatinib, Erlotinib, Gefinitib and AUY922 from Sigma, and Sulfurophane from Santa Cruz Biotechnology. HSF1-targeted shRNAmir (microRNA-adapted short hairpin RNA) vectors were constructed as described previously (Lang et al., 2012). EGR4-targeted shRNAmir were purchased from Millenium Science.
(§1) Generation of protein lysates from cells was performed according to a previously published protocol (Price et al., 2005). Equal concentrations of protein lysates were combined with loading buffer (Invitrogen) and sample reducing agent (Invitrogen), denatured for 5 minutes at 95° C. then separated through gel electrophoresis in a 4-to-12% Bis-Tris NuPAGE gel (Invitrogen) with 1×MES buffer (Invitrogen) and antioxidant (Invitrogen). Following separation, the proteins were electrophoretically transferred onto nitrocellulose membranes using the iBlot western detection stack/iBlot dry blotting system (Thermofisher) for seven minutes at 23V. All membranes were then processed at room temperature overnight using the […] (Thermofisher) containing primary antibodies, iBind wash solution and horseradish peroxidase-conjugated secondary antibodies. Blots were developed using Clarity Western ECL (Bio-RAD), and images were captured using a Fusion FX imaging machine (Vilber). All antibodies were purchased from commercial sources and included, anti-HSF1 (catalogue number SPA-901), anti-HSP27 (catalogue number SPA-800) and anti-HSP90a (catalogue number SPA-835) antibodies from Enzo Life Sciences; anti-HSP105/110 (catalogue number Sc-6241) antibody from Santa Cruz Biotechnology; anti-Ha-Ras (catalogue number 05-775) antibody from Merck Millipore; anti-actin (catalogue number MS-1295-P0) and anti-HSP70i (catalogue number MS-482-P0) antibodies from Thermo Scientific; anti-p53 (catalogue number 51-9002046) from BD Pharmingen; anti-pHER2/ErbB2 (catalogue number Ab53290), anti-pAkt (catalogue number MISCGENLAB), anti-pEGFR catalogue number SCZSC-12351), anti-total EGFR catalogue number SCZSC-120) from Abcam, anti-total Akt (catalogue number 9272) and anti-HER2/ErbB2 (catalogue number Ab134182) from Cell Signalling, anti-EGR4 (catalogue number AV38090) (Sigma), anti-EGR4 (catalogue number PA5-50496) (Thermofisher), and anti-EGR4 (catalogue number SC133540) (Santa Cruz).

[2] = test system: HER signalling pathway (pHER2, pAKT, EGR4-S) in HER2+ breast cancer cells; settings: for EGR4-S expression: increasing drug concentrations, FIG. 3
Procedure: Generation of protein lysates from cells was performed according to a previously published protocol (Price et al., 2005). Equal concentrations of protein lysates were combined with loading buffer (Invitrogen) and sample reducing agent (Invitrogen), denatured for 5 minutes at 95° C. then separated through gel electrophoresis in a 4-to-12% Bis-Tris NuPAGE gel (Invitrogen) with 1×MES buffer (Invitrogen) and antioxidant (Invitrogen). Following separation, the proteins were electrophoretically transferred onto nitrocellulose membranes using the iBlot western detection stack/iBlot dry blotting system (Thermofisher) for seven minutes at 23V. All membranes were then processed at room temperature overnight using the iBlot Western system (Thermofisher) containing primary antibodies, iBind wash solution and horseradish peroxidase-conjugated secondary antibodies. Blots were developed using Clarity Western ECL (Bio-RAD), and images were captured using a Fusion FX imaging machine (Vilber).
The effect of modulators that target the HER signalling pathway (TKIs such as Lapatinib, Gefitinib and Erlotinib) on EGR4-S expression was examined.

EGR4-S in HER2+ cells = assay: Lapatinib treatment of HER2+ cells with elevated or lowered HSF1 (FIG. 15A/B); type: cell-based
Procedure: as §1

[3] = test system: EGR4-S in HER2+ breast cancer cells (SKBR3); assay: EGR4-S expression in cells cultured in increasing Lapatinib concentrations over 7 weeks (FIG. 12); type: cell-based
Procedure: as §1
The cell line was cultured in increasing concentrations of Lapatinib over the course of seven weeks to investigate whether EGR4-S expression would be affected during prolonged treatment with Lapatinib.

Which EGR4-S expression ([1]; higher concentrations) does the source give for `CCNC(=O)c1noc(-c2cc(C(C)C)c(O)cc2O)c1-c1ccc(CN2CCOCC2)cc1` [AUY922] here?
The EGR4-S expression was “decreased; also recorded: reducing EGR4-S expression”.

And the HSP105 expression ([1]; higher concentrations)?
Its HSP105 expression is “increased”.

And the pHER2 expression ([1]; higher concentrations)?
Its pHER2 expression is “decreased”.

And the “total HER2 expression” value ([1]; higher concentrations)?
The value was “decreased”.

Which EGR4-S expression [2] does the source give for `C#Cc1cccc(Nc2ncnc3cc(OCCOC)c(OCCOC)cc23)c1` [Erlotinib] here?
The EGR4-S expression was “regulated”.

For `COc1cc2ncnc(Nc3ccc(F)c(Cl)c3)c2cc1OCCCN1CCOCC1` [Gefitinib], which EGR4-S expression [2] is on record?
The EGR4-S expression was “regulated”.

What does the source list for `CS(=O)(=O)CCNCc1ccc(-c2ccc3ncnc(Nc4ccc(OCc5cccc(F)c5)c(Cl)c4)c3c2)o1` [Lapatinib]?
EGR4-S expression (EGR4-S in HER2+ cells; HER2+ cells, dose-dependent, FIG. 15A): reduced EGR4-S expression in a dose-dependent manner; response of EGR4-S expression (EGR4-S in HER2+ cells; HSF1 levels lowered, equivalent doses, FIG. 15B): did not respond as readily; reduction of EGR4-S expression (EGR4-S in HER2+ cells; with elevated HSF1, FIG. 15A): more pronounced; EGR4-S expression over time ([2]; different types of HER2+ breast cancer cells, FIG. 3B): maintained over time; EGR4-S expression [2]: regulated; EGR4-S expression ([3]; SKBR3, week 5, 300 nM Lapatinib, vs control): less EGR4-S compared to the control; EGR4-S expression ([3]; SKBR3, week 7, 600 nM Lapatinib): returning to control levels; EGR4-S expression ([3]; after 3 weeks of treatment, vs untreated control): reduced levels of EGR4-S; EGR4-S expression ([3]; prolonged treatment, vs untreated control cells): unchanged

For `C[S+]([O-])CCCCN=C=S` (stereo not shown) [Sulfurophane, Sulforaphane], which HSP70 expression ([1]; greater treatment concentrations) is on record?
Its HSP70 expression is “increased”.

What about the EGR4-S expression ([1]; higher concentrations) of the same molecule?
Its EGR4-S expression is “reductions”.

What about the pHER2 expression ([1]; higher concentrations) of the same molecule?
The pHER2 expression was “reductions”.

And the EGR4-S expression ([1]; higher concentrations, listed as Sulforaphane)?
Its EGR4-S expression is “reducing EGR4-S expression”.
